US5340565A, “Tumor or cancer cell killing therapy and agents useful therefor” (priority 1992, dated 1994)
Where two headings read alike, the source gives them in different places.

Columns and labels:
[1] = test system: ADPRT (adenosine diphosphate ribosyl transferase); experiment: ADPRT activity in permeabilized HML after 30 min exposure; assay type: cell-based, human; conditions: average of duplicates
Experimental: The data were recorded as cpm TCA precipitable [^3 H]NAD per 1×10^6 cells.

[2] = Cytotoxicity by trypan blue exclusion in HML; assay type: cell-based; conditions: human, mononuclear leukocytes
[3] = test system: ADPRT; conditions: Sims et al, Biochem. 21:1813-1821, 1982; cited from earlier work
[4] = test system: human squamous cell carcinoma (SCC) (ABII) of the head and neck xeno-grafted to nude mice; experiment: Growth of human SCC (ABII) xenografted to nude mice, CDDP with or without metoclopramide; assay type: in vivo; conditions: for Reduction in AUC (area under plotted tumor growth curves), agent given alone: schedules A and B, metoclopramide 2.0 mg/kg i.p. (x1 or x3), CDDP 7.5 mg/kg i.p.
Experimental: Cisplatin (cis-diamine-dichloroplatinum=CDDP) is a heavy metal complex with alkylating properties which allow bifunctional linking to DNA. CDDP has been used successfully as a chemotherapeutic agent to treat several types of human cancers. Since CDDP treatment regimes induce nausea and vomiting, metoclopramide is often co-administered therewith as an antiemetic drug.
Two administration schedules were tested: (A) metoclopramide (2.0 mg/kg i.p.) one hour before CDDP (7.5 mg/kg i.p.) and (B) metoclopramide (2.0 mg/kg×3 treatment times) given separately concomitant to CDDP (7.5 mg/kg i.p.) and 24 hr and 48 hr after CDDP administration. In both schedules the combined treatment was compared with CDDP alone, metoclopramide alone and with physiologic saline treated tumor bearing animals (controls). The tumor line used was a poorly difterentiated human SSC originating from the nose. There were n=10 animals in each group. Tumor diameters and animal weight were recorded and plotted twice weekly for 21 days. Treatment efficacies were compared using the area under the plotted growth curves (AUC).

[5] = test system: adenocarcinoma transplanted in C3H mice; conditions: dose of 10 mg/kg, Kjellen and Pero 1987 abstract; cited from earlier work
[6] = test system: calmodulin; conditions: cited from earlier work
[7] = test system: Human mononuclear leukocytes (HML); experiment: Cytotoxicity by trypan blue exclusion in HML; assay type: cell-based; conditions: for % Dead Cells 30 min: 0.5 h
[8] = 100 μM agent, 30 min incubation, HML, read-out: % Dead Cells 30 min
[9] = 500 μM agent, 30 min incubation, HML, read-out: % Dead Cells 30 min

Compound: CN(C)CCCN1c2ccccc2Sc2ccc(Cl)cc21 [Chlorpromazine, 2chloro-N,N-dimethyl-10H-phenothiazine-10-propanamine]
- ADPRT Activity ([1]; 100 μM agent): 1508 cpm TCA precipitable [3H]NAD p
- ADPRT Activity ([1]; 500 μM agent): 890 cpm TCA precipitable [3H]NAD p
- cytotoxicity at 0.5 h, 100 µM [2, 8]: 50%
- cytotoxicity at 0.5 h, 500 µM [2, 9]: 100%

Compound: Nc1ccc(C(=O)O)cn1 [6-amino nicotinic acid]
- Inhibition of ADPRT [3]: failed to inhibit ADPRT

Compound: Cc1ccc(C2(O)CCN(CCCC(=O)c3ccc(F)cc3)CC2)cc1 [Moperone, 1(4-fluorophenyl)-4-[4-hydroxy-4(4-methylphenyl)1-piperidinyl]-1-butanone]
- ADPRT Activity ([1]; 100 μM agent): 529 cpm TCA precipitable [3H]NAD p
- ADPRT Activity ([1]; 500 μM agent): 712 cpm TCA precipitable [3H]NAD p
- ADPRT Activity ([1]; 1000 μM agent): 1112 cpm TCA precipitable [3H]NAD p
- cytotoxicity at 0.5 h, 100 µM [2, 8]: 5%
- cytotoxicity at 0.5 h, 500 µM [2, 9]: 7%
- cytotoxicity at 0.5 h, 1000 µM ([2]; 1000 μM agent, 30 min incubation, HML, read-out: % Dead Cells 30 min): 26%
- cytotoxicity at 18 h, 1000 µM ([2]; 1000 μM agent, 18 hr incubation, HML, read-out: % Dead Cells 18 hr): 100%

Compound: N.N.[Cl][Pt][Cl] [CDDP, cis-diamine-dichloroplatinum]
- AUC as % of control tumor growth ([4]; schedule B: CDDP 7.5 mg/kg i.p., metoclopramide 2.0 mg/kg x3 (concomitant, 24 hr, 48 hr), 21 days): 72 % of control tumor growth
- Reduction in AUC (area under plotted tumor growth curves), agent given alone ([4]; 21 days): significant reduction of AUC-values

Compound: Nc1cccc(C(=O)O)c1 [3-aminobenzoic acid]
- Inhibition of ADPRT [3]: failed to inhibit ADPRT

Compound: O=C(O)c1ccccc1 [benzoic acid]
- Inhibition of ADPRT [3]: failed to inhibit ADPRT

Compound: CC(CN1CCN(CCOCCO)CC1)CN1c2ccccc2Sc2ccccc21 (centres unmarked) [Dixyrazine]
- ADPRT Activity ([1]; 100 μM agent): 385 cpm TCA precipitable [3H]NAD p
- ADPRT Activity ([1]; 500 μM agent): 850 cpm TCA precipitable [3H]NAD p
- cytotoxicity at 0.5 h, 100 µM [2, 8]: 13%
- cytotoxicity at 18 h, 100 µM ([2]; 100 μM agent, 18 hr incubation, HML, read-out: % Dead Cells 18 hr): 78%
- cytotoxicity at 0.5 h, 500 µM [2, 9]: 79%
- cytotoxicity at 18 h, 500 µM ([2]; 500 μM agent, 18 hr incubation, HML, read-out: % Dead Cells 18 hr): 100%

Compound: CC(CN(C)C)CN1c2ccccc2Sc2ccccc21 (centres unmarked) [Trimeprazine]
- ADPRT Activity ([1]; 100 μM agent): 639 cpm TCA precipitable [3H]NAD p
- ADPRT Activity ([1]; 500 μM agent): 571 cpm TCA precipitable [3H]NAD p
- cytotoxicity at 0.5 h, 500 µM [2]: 95%
- cytotoxicity at 0.5 h, 100 µM [2, 8]: 7%

Compound: CCN(CC)CCNC(=O)c1cc(Cl)c(N)cc1OC [Metoclopramide, 4-amino-5-chloro-N-[(2-diethylamino)ethyl]-2-methoxy-benzamide]
- ADPRT Activity ([1]; 500 μM agent): 530 cpm TCA precipitable [3H]NAD p
- ADPRT Activity ([1]; 2000 μM agent): 703 cpm TCA precipitable [3H]NAD p
- ADPRT Activity ([1]; 5000 μM agent): 950 cpm TCA precipitable [3H]NAD p
- ADPRT Activity ([1]; 10000 μM agent): 870 cpm TCA precipitable [3H]NAD p
- Effect of adding metoclopramide to CDDP on AUC ([4]; schedule A: metoclopramide 2.0 mg/kg i.p. one hour before CDDP 7.5 mg/kg i.p.): did not give any additive effect
- Effect of adding metoclopramide to CDDP on AUC ([4]; schedule B: metoclopramide 2.0 mg/kg x3, concomitant to CDDP 7.5 mg/kg i.p. and 24 hr and 48 hr after): potentiated the effect of CDDP
- Reduction in AUC (area under plotted tumor growth curves), agent given alone ([4]; 21 days): In neither schedule A nor B did metoclopramide alone induce any significant reduction in AUC
- cytotoxicity at 0.5 h, 500 µM [2]: 7%
- cytotoxicity at 0.5 h, 2000 µM [2]: 13%
- cytotoxicity at 0.5 h, 5000 µM [2]: 10%
- cytotoxicity at 0.5 h, 10000 µM [2]: 22%
- cytotoxicity at 18 h, 500 µM [2]: 8%
- cytotoxicity at 18 h, 2000 µM [2]: 29%
- cytotoxicity at 18 h, 5000 µM [2]: 58%
- cytotoxicity at 18 h, 10000 µM [2]: 88%

Compound: NC(=O)c1ccccc1 [benzamide]
- Radiosensitization of adenocarcinoma [5]: totally ineffective

Compound: NC(=O)c1cccnc1 [Nicotinamide]
- Radiosensitization of adenocarcinoma [5]: will radiosensitize

Compound: pyrazine 1,2-dicarboxylic acid
- Inhibition of ADPRT [3]: failed to inhibit ADPRT

Compound: O=C(O)c1ccncc1 [isonicotinic acid]
- Inhibition of ADPRT [3]: failed to inhibit ADPRT

Compound: NCCCCCCNS(=O)(=O)c1cccc2c(Cl)cccc12 [W-7, N(6-aminohexyl)-5-chloro-1-naphthalenesulfonamide]
- ADPRT Activity ([1]; 50 μM agent): 750 cpm TCA precipitable [3H]NAD p
- ADPRT Activity ([1]; 100 μM agent): 910 cpm TCA precipitable [3H]NAD p
- ADPRT Activity ([1]; 200 μM agent): 1480 cpm TCA precipitable [3H]NAD p
- cytotoxicity at 0.5 h, 50 µM [2]: 10%
- cytotoxicity at 0.5 h, 100 µM [2]: 25%
- cytotoxicity at 0.5 h, 200 µM [2]: 90%

Compound: NCCCCCCNS(=O)(=O)c1cccc2ccccc12 [W-5, N(6-aminohexyl)-naphthalenesulfonamide]
- ADPRT Activity ([1]; 50 μM agent): 395 cpm TCA precipitable [3H]NAD p
- ADPRT Activity ([1]; 100 μM agent): 415 cpm TCA precipitable [3H]NAD p
- ADPRT Activity ([1]; 200 μM agent): 425 cpm TCA precipitable [3H]NAD p
- cytotoxicity at 0.5 h, 50 µM ([2]; 50 μM agent, 30 min incubation, HML, read-out: % Dead Cells 30 min): < 5%
- cytotoxicity at 0.5 h, 100 µM [2, 8]: < 5%
- cytotoxicity at 0.5 h, 200 µM ([2]; 200 μM agent, 30 min incubation, HML, read-out: % Dead Cells 30 min): 7%
- Calmodulin antagonist activity at fixed concentration ([6]; 50 μM): inactive
- IC50 ([6]; Hidaka et al, Proc. Natl. Acad. Sci. U.S.A. 78:4354-4357, 1981, read-out: IC50 dose as calmodulin antagonist): ~250 µM

Compound: OO [H2 O2]
- ADPRT Activity ([1]; 100 μM agent): 1800 cpm TCA precipitable [3H]NAD p
- ADPRT Activity ([1]; 300 μM agent): 2700 cpm TCA precipitable [3H]NAD p
- ADPRT Activity ([1]; 500 μM agent): 2900 cpm TCA precipitable [3H]NAD p
- ADPRT Activity ([1]; 1000 μM agent): 3000 cpm TCA precipitable [3H]NAD p
- % Dead Cells 30 min ([7]; 100 µM): 5%
- % Dead Cells 30 min ([7]; 300 µM): 5%
- % Dead Cells 30 min ([7]; 500 µM): 7%
- % Dead Cells 30 min ([7]; 1000 µM): 12%
- % Dead Cells 18 hr ([7]; 100 µM): 40%
- % Dead Cells 18 hr ([7]; 300 µM): 41%
- % Dead Cells 18 hr ([7]; 500 µM): 55%
- % Dead Cells 18 hr ([7]; 1000 µM): 71%
